In US20200370012A1, “METHODS OF MAKING CHIMERIC ANTIGEN RECEPTOR-EXPRESSING CELLS” (Novartis AG, priority 2017, published 2020):

How the values were obtained:
[1] = system: Anti-CD19BBζ CAR T cells; test: Metabolic modulation of CAR T cells: differentiation phenotype by flow cytometry after 9 days of culture with or without 2-DG; type: cell-based, human; details: FIG. 4 and FIG. 5
Experimental: The following T-cell subsets are shown: naïve-like (CCR7+CD45RO−); central memory (CCR7+CD45RO+); effector memory (CCR7−CD45RO+); and effector (CCR7−CD45RO−). Anti-CD19BBζ CAR T cells were generated as in the presence or absence of the glycolysis inhibitor 2-deoxyglucose (2-DG; Sigma-Aldrich). Following 9 days of culture, the differentiation phenotype of these cells was determined by flow cytometry. CAR+T-cells were sorted on the FACSAria II cell sorter (BD Biosciences) and combined 1:1 with irradiated K562 cells engineered to express CD19 (K562-CD19). CTL019cells were re-stimulated ×3 with K562-CD19 targets. During the proliferation assay, absolute cell counts were obtained using the Luna automated cell counter (Logos Biosystems).

[2] = molecular target: T1, STAT3 (pY705) (Homo sapiens, UniProt P40763); test: Measurement of pSTAT3 by Phosflow intracellular staining; type: cell-based
T1 construct: CTL019 cells from CLL patient infusion products were thawed and stimulated with anti-idiotypic antibody-coated beads or mock beads; endogenous in cells; host or cells: CTL019 (anti-CD19 4-1BB/CD3zeta CAR) T cells made from autologous T cells of CLL patients; in some experiments FACS-sorted CD8+ T cell subsets
Experimental: FIGS. 7A-7D show IL-6/STAT3 pathway enrichment in CAR T cells. […] Graphs show mean with s.e.m. […] Bars represent the mean and s.e.m. […] Pooled data from patients with highly functional (CR, n=3; PRTD, n=2) versus poorly functional (PR, n=3; NR, n=11) CAR T cells is shown in the box plots (right panel). Whiskers represent min. to max.; boxes represent 25-75 percentiles; the middle line indicates the median. The change in fluorescence intensity (MFI) was calculated by subtracting the […].
FIGS. 11A-11B show levels of pSTAT3 in CD27+ PD-1− CD8 T cells in response to IL-6. […] Summary of IL-6-induced pSTAT3 levels in CD8+ T cell subsets defined by CD27 and PD-1 expression from n=4 different subjects is shown in the right panel. The change in mean fluorescence intensity (AMFI) was determined by subtracting the […].
(§1) CTL019 cells from CLL patient infusion products were thawed and stimulated with anti-idiotypic antibody-coated beads or mock beads. […] The ability of Stattic to inhibit STAT3 signaling was assessed by Phosflow staining as described above. […] Absolute cell numbers and viability were simultaneously measured during the course of CAR T cell expansion using the Luna automated cell counter (Logos Biosystems).

[3] = system: CTL019 cells; test: Serial re-stimulation assay with irradiated K562-CD19 cells: CTL019 cells made with or without Stattic or recombinant IL-6 (cell numbers and viability); type: cell-based, human; details: exogenous IL-6 added to culture media during manufacturing of CTL019 cells; FIG. 9
Experimental: FIGS. 8A-8C show inhibition of the STAT3 pathway in CAR T cells. […] CAR-specific stimulations were performed in the presence or absence of 5 μM Stattic, a small molecule inhibitor of STAT3 activation. […] CAR T cells from this representative subject were then serially re-stimulated with K562 cells engineered to express CD19 on days 0, 7 and 12 of the culture, as indicated by the arrows.
CTL019 cells from this representative subject were then serially re-stimulated with K562 cells engineered to express CD19 or mesothelin (negative control) on days 0, 7, and 12 of the culture, as indicted by the arrows.
as §1, with “beads. For some experiments, cells were stimulated for 10 minutes with recombinant human IL-6 (Miltenyi Biotec.) at a final concentration of 10 ng/mL. In cell subset evaluation experiments, populations of interest were stained for surface markers and sorted on a FACSAria II cell sorter (BD Biosciences) prior to acute stimulation with IL-6.” for “beads.”

T1 sequence (P40763 whole entry, the tested form may be a part): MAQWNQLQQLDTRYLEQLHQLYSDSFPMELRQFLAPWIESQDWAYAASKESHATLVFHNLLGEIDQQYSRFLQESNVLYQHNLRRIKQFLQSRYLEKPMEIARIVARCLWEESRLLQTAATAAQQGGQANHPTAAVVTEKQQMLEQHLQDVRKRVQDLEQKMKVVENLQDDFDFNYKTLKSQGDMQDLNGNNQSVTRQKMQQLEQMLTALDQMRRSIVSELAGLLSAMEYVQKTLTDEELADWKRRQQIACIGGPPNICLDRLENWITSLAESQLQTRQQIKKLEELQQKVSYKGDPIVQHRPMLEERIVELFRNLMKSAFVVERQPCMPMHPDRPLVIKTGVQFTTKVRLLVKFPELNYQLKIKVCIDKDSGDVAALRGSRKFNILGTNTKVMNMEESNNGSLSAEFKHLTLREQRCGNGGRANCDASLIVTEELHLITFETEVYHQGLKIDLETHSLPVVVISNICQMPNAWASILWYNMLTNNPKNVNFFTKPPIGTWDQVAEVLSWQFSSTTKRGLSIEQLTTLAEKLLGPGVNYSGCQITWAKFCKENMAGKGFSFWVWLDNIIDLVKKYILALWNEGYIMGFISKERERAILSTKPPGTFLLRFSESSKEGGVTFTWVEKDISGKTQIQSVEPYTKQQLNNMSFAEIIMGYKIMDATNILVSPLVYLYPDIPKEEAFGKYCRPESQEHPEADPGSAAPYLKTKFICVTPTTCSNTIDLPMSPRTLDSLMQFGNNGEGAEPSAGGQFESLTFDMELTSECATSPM

pSTAT3 activity ([2]; exogenous IL-6 added to culture media during manufacturing of CTL019 cells)	pSTAT3 in response to IL-6 stimulation ([2]; sorted CD27+PD-1− CD8+ subset, recombinant IL-6 10 ng/ml, FIG. 11A)	Compound	effector differentiation ([1]; CAR T cells cultured 9 days in presence vs absence of 2-DG)	frequencies of CAR T cells with a central memory phenotype ([1]; CCR7+CD45RO+, cultured 9 days in presence vs absence of 2-DG)	absolute numbers of CAR T cells following repeated stimulation with CD19-expressing tumor targets [3]	expansion capacity following repeated stimulation with CD19-expressing tumor targets [3]
		OC[C@H]1O[C@H](O)C[C@@H](O)[C@@H]1O [2-DG, (4R,5S,6R)-6-(hydroxymethyl)oxane-2,4,5-triol]	decreased	increased		
Increasing	upregulates	IL-6: recombinant human IL-6 (Miltenyi Biotec.), a Stat3 activator			elevated	elevated
